From US10000771B2, “Nuclear targeting sequences” (Yeda Research and Development Co. Ltd., priority 2007, dated 2018)
Ends that are not written are not given here. 2GFP = dimer of GFP proteins

Experiments:
importin-7 = target: T1, importin-7 (Homo sapiens, UniProt O95373); experiment: Coimmunoprecipitation with importin-7; format: binding; settings: HeLa cells
T1 construct: endogenous in cells; host or cells: HeLa
Procedure: FIGS. 19A-19C are autoradiographs illustrating that phospho-SPS interacts with importin-7 and releases Nup153c binding without involvment of importin-β. […]. Interaction of ERK2 with Importin-7 is enhanced by EGF stimulation and EPE mutation. HeLa cells overexpressing WT-ERK (WT), ERK-APA (APA), ERK-EPE (EPE) or GFP were serum starved and treated with EGF (50 ng/ml, 10 min). The extracts of the treated cells were then subjected to coimmunoprecipitation using A/G beads pre-conjugated with anti GFP Ab and mild washes. The coimmunoprecipitated importin-7 (first panel) and importin-β (third panel), as well as their loading amounts (panels 2 and 4 respectively) were determined by WB using anti importin-7 (αImp7) and importin-β (αImpβ) Abs. The equal amount of immunoprecipitated ERKs was determined with anti GFP (αGFP; IP) Ab. FIG. 19B. Interaction of 2GFP-SPS and its mutants with importin-7. HeLa cells overexpressing 2GFP, 2GFP-SPS, 2GFP-APA and 2GFP-EPE constructs were subjected to coimmunoprecipitation as described in FIG. 19A (without EGF stimulation). FIG. 19C. Interaction of NUP153 with WTERK2 and its APA and EPE mutants. NUP153c is elevated in APA-ERK2, but reduced in EPE-ERK2. Immunoprecipitated and stringently washed WT-ERK2 (WT), APA-ERK2 (APA) or ERK2 from […] cells pre-treated with or without TPA (250 nM, 15 min) were incubated with 0.5 μg recombinant His-Nup153c. This was followed by mild washing, and the beads were then subjected to Western blot analysis using anti His (αHis) and anti αGFP Abs.
Immunoprecipitation. Cellular extracts of stimulated transfected cells, were incubated with anti-GFP antibody preconugated to A/G beads (Santa Cruz; (2 hr, 4° C.). Subsequently, the beads were washed twice with HNTG buffer and once with 0.5 M LiCl. The immunoprecipitates were subjected either to Western blotting as described above or to an in vitro phosphatase assay as described under Results.

SPS domain = experiment: SPS phosphorylation detected by anti pSPS Ab Western blot; format: cell-based; settings: COS7 cells; for SPS phosphorylation upon stimulation (anti pSPS Ab recognition): stimulated with VOOH, TPA, EGF or TGFβ, immunoprecipitation and Western blot
Procedure: FIGS. 4A-4I are autoradiographs characterizing SPS phosphorylation using an Ab to the phosphorylated SPS domain. FIG. 4A illustrates an elevation of pSPS detection upon stimulation. COS cells were transfected with WT-GFP-ERK2. Twenty-four hr after transfection, the cells were serum-starved for 16 hr and subsequently treated with the general stimulator VOOH (V, 100 μM Na3VO4 and 200 μM H2O2, 15 min), TPA (T, 250 nM, 15 min), EGF (E, 50 ng/ml for 15 min), or left untreated (NT). The GFP-ERK2 was immunoprecipitated with anti GFP Ab, extensively washed, and the IP was then subjected to Western blotting with anti phospho SPS-ERK (αphoSPS-ERK) and anti general ERK (αgen-ERK) Abs. FIG. 4B is a time course of SPS phosphorylation. COS7 cells overexpressing WT-GFP-ERK2 were serum starved followed by EGF stimulation for the indicated time points. The lysates were then subjected to Western blot analysis as in FIG. 4A. FIGS. 4C-D. GFP-ERK2 was immunoprecipitated from VOOH stimulated (Act) or non-stimulated (NT), transfected COS7 cells as above. The immunoprecipitated protein was then incubated with shrimp's alkaline phosphates (SAP, 15 units, 30 min, 30° C. in the manufacturer digestion buffer), and subjected to Western blot analysis with anti phosphoSPS-ERK (αpSPS; FIG. 4C), anti phosphoTEY-ERK (αpTEY; FIG. 4D), and anti general-ERK Ab (αgen-ERK; FIGS. 4C, D). FIG. 4E. Elevation of anti pSPS Ab immunoreactivity upon stimulation of endogenous ERKs. Following serum starvation COS7 cells were treated with EGF (50 ng/ml) or VOOH (V, 100 μM Na3VO4 and 200 μM H2O2) for the indicated times. SPS phosphorylation was detected using the anti pSPS Abs, and this was compared to the amount of genral ERKs detected by αgERK. FIG. 4F. Specificity of the anti pSPS Ab. COS7 cells overexpressing either GFP-ERK2 or 244-6A mutant were serum starved for 16 hr, and then treated with EGF (50 ng/ml) for 15 min following WB analysis using αpSPS and αgERK Abs. FIG. 4G. TEY phosphorylation is not required for SPS phosphorylation. COS7 cells overexpressing WT-ERK2 or TEY-AAA were treated as described in D. FIG. 4H. COS7 cells were treated with or without UO126 prior (15 min) to EGF (50 ng/ml) stimulation for the indicated times. SPS-phosphorylation was detected using αpSPS and αgERK Abs. FIG. 4I. Phosphorylation of SPS is mediated by ERK autophosphorylation. […] The phosphorylation (^32P-ERK2) of ERK and its mutants was detected by autoradiography. […]
FIG. 9B is an autoradiograph illustrating that stimulation elevates pSPS phosphorylation of 2GFP-SPS construct. […] The total amount of immunoprecipitated 2GFP-SPS was detected with αGFP Ab. […]

T1 sequence (O95373 whole entry): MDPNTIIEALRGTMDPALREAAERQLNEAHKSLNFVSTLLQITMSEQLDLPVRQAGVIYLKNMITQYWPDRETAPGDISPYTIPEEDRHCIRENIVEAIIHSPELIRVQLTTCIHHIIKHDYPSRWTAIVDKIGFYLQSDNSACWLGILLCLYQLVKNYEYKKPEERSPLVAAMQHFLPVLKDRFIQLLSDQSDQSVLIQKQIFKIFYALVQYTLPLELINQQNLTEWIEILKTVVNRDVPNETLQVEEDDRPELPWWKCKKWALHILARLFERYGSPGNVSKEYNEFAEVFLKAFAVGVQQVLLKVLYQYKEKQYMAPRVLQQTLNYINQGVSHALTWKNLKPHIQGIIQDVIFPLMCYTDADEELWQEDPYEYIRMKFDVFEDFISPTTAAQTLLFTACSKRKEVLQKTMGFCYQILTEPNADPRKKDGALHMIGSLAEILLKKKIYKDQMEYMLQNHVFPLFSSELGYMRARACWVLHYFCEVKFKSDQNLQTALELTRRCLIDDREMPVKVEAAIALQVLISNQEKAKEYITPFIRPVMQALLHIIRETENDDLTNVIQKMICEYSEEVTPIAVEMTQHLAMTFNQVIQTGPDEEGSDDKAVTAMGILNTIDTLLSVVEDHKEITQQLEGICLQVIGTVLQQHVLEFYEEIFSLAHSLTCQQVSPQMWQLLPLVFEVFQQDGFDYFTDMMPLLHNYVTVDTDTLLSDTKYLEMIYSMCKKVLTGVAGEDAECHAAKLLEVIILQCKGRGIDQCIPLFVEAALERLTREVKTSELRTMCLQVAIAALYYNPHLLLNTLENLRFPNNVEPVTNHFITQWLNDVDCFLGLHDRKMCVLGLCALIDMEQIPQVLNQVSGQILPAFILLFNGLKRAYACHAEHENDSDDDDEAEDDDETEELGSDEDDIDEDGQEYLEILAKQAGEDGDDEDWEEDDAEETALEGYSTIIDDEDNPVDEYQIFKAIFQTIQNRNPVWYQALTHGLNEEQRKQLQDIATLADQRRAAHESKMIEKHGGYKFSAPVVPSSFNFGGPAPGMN

interaction of 2GFP constructs with importin-7 (importin-7; coimmunoprecipitation, without EGF stimulation)	Substance	SPS phosphorylation upon stimulation (anti pSPS Ab recognition) (SPS domain)	interaction of ERK2 constructs with importin-7 (importin-7; coimmunoprecipitation with anti GFP Ab, with or without stimulation)	time of peak SPS phosphorylation (SPS domain; following EGF stimulation) [min]
did bind importin-7	2GFP-SPS: 2GFP with the 19 amino acid stretch containing the SPS of ERK2 (SEQ ID NO: 6) fused to its C terminus (2GFP-LDQLNHILGILGSPSQEDL)	elevates		
	WT-ERK2: wild-type ERK2 fused to GFP, prepared in pEGFP C1 [reference compound]	significantly increased	significantly increased upon TPA stimulation	15
